{
  "source": "patent US6828332B1",
  "about": "“Piperidine derivatives as reuptake inhibitors” (Eli Lilly and Company, priority 1999, dated 2004)",
  "note": "Structures can show the parent of a compound that is named as a salt.",
  "data": [
    {"units": {"melting point": "°C"}, "values": [
      {"molecule": "O=C(C1CCCCC1)C(CCN1CC=C(c2ccc3ccsc3c2)CC1)c1ccccn1", "note": "(centres unmarked) (as salt: oxalate)", "melting point": "164 to 169"},
      {"molecule": "O=C(C1CCCCC1)C(CCN1CC=C(c2csc3ccccc23)CC1)c1ccccn1", "note": "(centres unmarked) (as salt: oxalate)", "melting point": "208 to 210"},
      {"molecule": "OC(C1CCCCC1)C(CCN1CC=C(c2ccc3sccc3c2)CC1)c1ccccn1", "note": "(single isomer, unassigned) (as salt: oxalate)", "melting point": "190 to 192"},
      {"molecule": "OC(C1CCCCC1)C(CCN1CC=C(c2ccc3ccsc3c2)CC1)c1ccccn1", "note": "(centres unmarked) (as salt: oxalate)", "melting point": "94 to 98"},
      {"molecule": "O=C(C1CCCCC1)C(CCN1CC=C(c2ccc3sccc3c2)CC1)c1ccccn1", "note": "(centres unmarked) (as salt: oxalate)", "melting point": "194 to 196"},
      {"molecule": "OC(C1CCCCC1)C(CCN1CC=C(c2cc3ccccc3s2)CC1)c1ccccn1", "note": "(single isomer, unassigned) (as salt: oxalate)", "melting point": "210 to 212"},
      {"molecule": "O=C(C1CCCCC1)C(CCN1CC=C(c2cc3ccccc3s2)CC1)c1ccccn1", "note": "(centres unmarked) (as salt: oxalate)", "melting point": "228 to 230"},
      {"molecule": "OC(C1CCCCC1)C(CCN1CC=C(c2csc3ccccc23)CC1)c1ccccn1", "note": "(centres unmarked) (as salt: oxalate)", "melting point": "100 to 107"}
    ]}
  ]
}
